Measurements published in patent publication US12440492B2, “Pharmaceutical compositions comprising AKT protein kinase inhibitors” (Genentech, Inc., priority 2016, dated 2025).
Structures can show the parent of a compound that is named as a salt.

Key:
Format in all cases: physicochemical
[1] = Hygroscopicity of ipatasertib
Description: (§1) Whereas poor solubility is often a limiting factor in the development of galenical formulations of other API's (active pharmaceutical ingredient), a high solubility can equally be problematic for the process performance. Due to this very high intrinsic hygroscopicity of the API, ipatasertib drug substance tends to auto-dissolve to a honey-like viscous liquid at increased humidity. Such high solubility and hygroscopicity may pose serious problems for processing as well as for stability and shelf-life of the final product. Therefore, conventional pharmaceutical compositions comprising ipatasertib and processes for the manufacture of pharmaceutical compositions comprising wetting (e.g. wet granulation) are difficult due to the high solubility and high hygroscopicity of the API.

[2] = Solubility of ipatasertib
Description: as §1

Glass transition = settings: monohydrochloride
[3] = Particle size distribution (d10, d50, d90) by laser diffraction; settings: for particle size distribution shape: laser diffraction, monohydrochloride
Description: FIG. 6 illustrates particle size distribution of the material of Example 6C (Batch HQ00003) spray dried with two-feed nozzle as obtained by laser diffraction A bimodal particle size distribution is obvious. FIG. 9 illustrates particle size distribution of spray dried material with rotary wheel nozzle, i.e. of the material of batch BS1506SA03 of Example 13 (Table 20) obtained using a Malvern Mastersizer 2000 equipped with Hydro 2000S wet sample dispersion unit (Malvern Instruments Ltd, Malvern/UK). A monomodal particle size distribution is obvious. The terms “d50 value” (sometimes also referred to as “d(0.5)-value”) and “mass-median diameter” (or MMD) can be used interchangeably and denote the average particle size by mass, i.e. the average equivalent diameter of a particle, which is defined as the diameter where 50% (w) of the particles of the ensemble have a larger equivalent spherical diameter, and the other 50% (w) have a smaller equivalent spherical diameter. In analogy, the term “d10-value” denotes the particle diameter wherein 10% (w) of the particles of the ensemble have a smaller equivalent spherical diameter. In analogy, the term “d90-value” denotes the particle diameter wherein 90% (w) of the particles of the ensemble have a smaller equivalent spherical diameter.

[4] = Solid state by X-ray powder diffraction; settings: * indicates absence of crystalline API; for Solid state / Polymorphy (X-Ray, XRPD): monohydrochloride
Description: Bragg's law describes the diffraction of crystalline material with the equation “2d·sin(theta)=n·lambda”, wherein “d” denotes perpendicular distance (in Angstroms) between pairs of adjacent planes in a crystal (“d-spacing”), “theta” denotes the Bragg angle, “lambda” denotes the wavelength and “n” is an integer. When Bragg's law is fulfilled, the reflected beams are in phase and interfere constructively so that Bragg diffraction peaks are observed in the X-ray diffraction pattern. At angles of incidence other than the Bragg angle, reflected beams are out of phase and destructive interference or cancellation occurs. […] The XRPD pattern of an amorphous material is further characterized by one or more amorphous halos.
The term “XRPD” denotes the analytical method of X-Ray Powder Diffraction. The repeatability of the angular values is in the range of 2Theta±0.2°, more particularly in the range of 2Theta±0.1°. The term “approximately” given in combination with an angular value denotes the variance which is in the range of 2Theta±0.2°, particularly in the range of 2Theta±0.1°. The relative XRPD peak intensity is dependent upon many factors such as structure factor, temperature factor, crystallinity, polarization factor, multiplicity, and Lorentz factor. Relative intensities may vary considerably from one measurement to another due to preferred orientation effects. According to USP 941 (US Pharmacopoeia, 37th Edition, General Chapter 941), relative intensities between two samples of the same material may vary considerably due to “preferred orientation” effects. Anisotropic materials adopting preferred orientation will lead to anisotropic distribution of properties such as modulus, strength, ductility, toughness, electrical conductivity, thermal expansion, etc., as described e.g. in Kocks U. F. et al. (Texture and Anisotropy: Preferred Orientations in Polycrystals and Their Effect on Materials Properties, Cambridge University Press, 2000). In XRPD but also Raman spectroscopy, preferred orientations cause a change in the intensity distribution. Preferred orientation effects are particularly pronounced with crystalline APIs of relatively large particle size.

[5] = Shear cell testing with Ring Shear Tester RST-XS; settings: Pre-shear stress 1000 PA, 30 mL shear cell; monohydrochloride
Description: Similar to the classification used by Jenike (Dietmar Schulze, Pulver und Schüttgüter, 2009 Springer Verlag Berlin/DE), one can define flow behaviour based on the flow function constant (ffc) as follows:
The larger the flow function constant ffc, i.e., the smaller the ratio of the unconfined yield strength (σc) to the consolidation stress (σ1), the better a bulk solid's flow.

[6] = Bulk density, tapped density and Carr index; settings: monohydrochloride
[7] = Mechanical deformation behaviour (brittleness); settings: more brittle than lactose
Description: Mechanical compression during tableting of conventional pharmaceutical compositions comprising ipatasertib leads to exhausted compressibility, followed by elastic recovery of the tablet upon decompression. Therefore conventional pharmaceutical compositions comprising ipatasertib monohydrochloride are not suitable for direct compression due to lamination problems (crack formation during decompression) which are detectable as small cracks and fractures of the tablet core (e.g. using X-ray microtomography). Industrially required high-speed tableting processes may not be achievable.

[8] = spray dried amorphous ipatasertib monohydrochloride powder
[9] = spray-dried amorphous ipatasertib monohydrochloride, rotary wheel atomizer

## CC(C)NC[C@@H](C(=O)N1CCN(c2ncnc3c2[C@H](C)C[C@H]3O)CC1)c1ccc(Cl)cc1 [ipatasertib, (S)-2-(4-chlorophenyl)-1-(4-((5R,7R)-7-hydroxy-5-methyl-6,7-dihydro-5H-cyclopenta[d]pyrimidin-4-yl)piperazin-1-yl)-3-(isopropylamino)propan-1-one]
[1]; at 50% RH
  hygroscopicity: ~6%
[1]; at 95% RH
  hygroscopicity: > 35%
[2]; water
  solubility: > 1 g/g
[2]; water/ethanol 1:1
  solubility: > 2 g/g

## CC(C)NC[C@@H](C(=O)N1CCN(c2ncnc3c2[C@H](C)C[C@H]3O)CC1)c1ccc(Cl)cc1 [Example 6C, ipatasertib monohydrochloride]
Glass transition
  Glass Transition tg: 131 °C
[3]
  particle size distribution shape: bimodal
[3]; [8]
  Particle size d10: 0.7 μm
  Particle size d50: 4.3 μm
[4]
  Solid state / Polymorphy (X-Ray, XRPD): amorphous

## CC(C)NC[C@@H](C(=O)N1CCN(c2ncnc3c2[C@H](C)C[C@H]3O)CC1)c1ccc(Cl)cc1 [BS1506SA03, ipatasertib monohydrochloride]
[5]
  Consolidation stress (σ1): 1709 PA
  Flow Function Constant (ffc): 2.9
[3]
  particle size distribution shape: monomodal
[3]; [9]
  Particle size d10: 12 μm
  Particle size d50: 31 μm
  Particle size d90: 62 μm
[6]; [9]
  Bulk density: 0.39 gcm^−3
  Tapped density: 0.55 gcm^−3
[4]
  Polymorphy (X-Ray): amorphous*

## CC(C)NC[C@@H](C(=O)N1CCN(c2ncnc3c2[C@H](C)C[C@H]3O)CC1)c1ccc(Cl)cc1 [6B′, ipatasertib monohydrochloride]
Glass transition
  Glass Transition tg: 132 °C
[3]; [8]
  Particle size d10: 0.7 μm
  Particle size d50: 5.2 μm
  Particle size d90: 10.8 μm
[4]
  Solid state / Polymorphy (X-Ray, XRPD): amorphous

## CC(C)NC[C@@H](C(=O)N1CCN(c2ncnc3c2[C@H](C)C[C@H]3O)CC1)c1ccc(Cl)cc1 [Composition 140910420, ipatasertib monohydrochloride]
[5]
  Consolidation stress (σ1): 1733 PA
  Flow Function Constant (ffc): 2.4
[3]; [8]
  Particle size d10: 9.7 μm
  Particle size d50: 24 μm
  Particle size d90: 47 μm
[6]; [8]
  Bulk density: 0.32 gcm^−3
  Tapped density: 0.44 gcm^−3
[4]
  Solid state / Polymorphy (X-Ray, XRPD): amorph.*

## CC(C)NC[C@@H](C(=O)N1CCN(c2ncnc3c2[C@H](C)C[C@H]3O)CC1)c1ccc(Cl)cc1 [BS1506SA02, ipatasertib monohydrochloride]
[5]
  Consolidation stress (σ1): 1701 PA
  Flow Function Constant (ffc): 3.5
[3]; [9]
  Particle size d10: 11 μm
  Particle size d50: 31 μm
  Particle size d90: 64 μm
[6]; [9]
  Bulk density: 0.40 gcm^−3
  Tapped density: 0.52 gcm^−3
[4]
  Polymorphy (X-Ray): amorphous*

## CC(C)NC[C@@H](C(=O)N1CCN(c2ncnc3c2[C@H](C)C[C@H]3O)CC1)c1ccc(Cl)cc1 [Composition 140910415, ipatasertib monohydrochloride]
[5]
  Consolidation stress (σ1): 1710 PA
  Flow Function Constant (ffc): 3.3
[3]; [8]
  Particle size d10: 11 μm
  Particle size d50: 29 μm
  Particle size d90: 56 μm
[6]; [8]
  Bulk density: 0.42 gcm^−3
  Tapped density: 0.57 gcm^−3
[4]
  Solid state / Polymorphy (X-Ray, XRPD): amorph.*

## CC(C)NC[C@@H](C(=O)N1CCN(c2ncnc3c2[C@H](C)C[C@H]3O)CC1)c1ccc(Cl)cc1 [6A′, ipatasertib monohydrochloride]
Glass transition
  Glass Transition tg: 131 °C
[3]; [8]
  Particle size d10: 0.7 μm
  Particle size d50: 3.8 μm
  Particle size d90: 7.5 μm
[4]
  Solid state / Polymorphy (X-Ray, XRPD): amorphous

## CC(C)NC[C@@H](C(=O)N1CCN(c2ncnc3c2[C@H](C)C[C@H]3O)CC1)c1ccc(Cl)cc1 [ipatasertib monohydrochloride, (S)-2-(4-chlorophenyl)-1-(4-((5R,7R)-7-hydroxy-5-methyl-6,7-dihydro-5H-cyclopenta[d]pyrimidin-4-yl)piperazin-1-yl)-3-(isopropylamino)propan-1-one as monohydrochloride salt]
[7]
  brittle deformation characteristics relative to lactose: 3 ×

## CC(C)NC[C@@H](C(=O)N1CCN(c2ncnc3c2[C@H](C)C[C@H]3O)CC1)c1ccc(Cl)cc1 [BS1506SA08, ipatasertib monohydrochloride]
[5]
  Consolidation stress (σ1): 1686 PA
  Flow Function Constant (ffc): 3.4
[3]; [9]
  Particle size d10: 13 μm
  Particle size d50: 34 μm
  Particle size d90: 68 μm
[6]; [9]
  Bulk density: 0.43 gcm^−3
  Tapped density: 0.56 gcm^−3
[4]
  Polymorphy (X-Ray): amorphous*
